≈ marks a conversion by molar mass, not a printed value.
Key:
[1] = system: E. coli expressing TEM-1+CTX-M-15, CTX-M-15, and KPC-2+SHV-12; test: Murine ascending UTI model, three strains; format: in vivo, mice; conditions: mouse, in vivo
E. coli 2150 = test: Broth microdilution MIC (strain enzymes: SHV-3, TEM-1); format: cell-based; conditions: Escherichia coli, 2150; alone; read-out: MIC of ceftibuten (CTB)
K. pneumoniae 115468 = test: Broth microdilution MIC (strain enzymes: TEM-1); format: cell-based; conditions: Klebsiella pneumoniae, 115468; alone; read-out: MIC of ceftibuten (CTB)
E. coli 3174 = test: Broth microdilution MIC (strain enzymes: TEM-1, CTXM-15); format: cell-based; conditions: Escherichia coli, 3174; alone; read-out: MIC of ceftibuten (CTB)
K. pneumoniae KP 8 = test: Broth microdilution MIC (strain enzymes: TEM-10, TEM-1, CTX-M15); format: cell-based; conditions: Klebsiella pneumoniae, KP8; alone; read-out: MIC of ceftibuten (CTB)
E. coli SI-LP377 = test: microbe, parasite or virus in culture; format: cell-based; conditions: Escherichia coli, SILP377, read-out: MIC of ceftibuten (CTB)
E. coli ESBL 5 = test: Broth microdilution MIC (strain enzymes: CTX-M15, TEM-1); format: cell-based; conditions: Escherichia coli, ESBL5; alone; read-out: MIC of ceftibuten (CTB)
K. pneumoniae KPN 508 = test: Broth microdilution MIC (strain enzymes: SHV-7, TEM-1); format: cell-based; conditions: Klebsiella pneumoniae, KPN508; alone; read-out: MIC of ceftibuten (CTB)
K. pneumoniae 304487 = test: Broth microdilution MIC (strain enzymes: SHV-12,TEM-1); format: cell-based; conditions: Klebsiella pneumoniae, 304487; alone; read-out: MIC of ceftibuten (CTB)
K. pneumoniae ESBL 10 = test: Broth microdilution MIC (strain enzymes: SHV-12, TEM-1); format: cell-based; conditions: Klebsiella pneumoniae, ESBL10; alone; read-out: MIC of ceftibuten (CTB)
K. pneumoniae BAA 1705 = test: Broth microdilution MIC (strain KPC-producing); format: cell-based; conditions: Klebsiella pneumoniae, BAA1705; alone; read-out: MIC of ceftibuten (CTB)
E. coli BAS 1 = test: Broth microdilution MIC (strain enzymes: none detected); format: cell-based; conditions: Escherichia coli, BAS1; alone; read-out: MIC of ceftibuten (CTB)
K. pneumoniae ESBL 8 #2 = test: Broth microdilution MIC (strain enzymes: SHV-12, TEM-1); format: cell-based; conditions: Klebsiella pneumoniae; alone; read-out: MIC of ceftibuten (CTB)
K. pneumoniae ESBL 7 #2 = test: Broth microdilution MIC (strain enzymes: SHV-12, CTX-M15, TEM-1); format: cell-based; conditions: Klebsiella pneumoniae; alone; read-out: MIC of ceftibuten (CTB)
E. coli SI-AIRT-4 = test: Broth microdilution MIC (strain enzymes: TEM-1); format: cell-based; conditions: Escherichia coli, SIAIRT4; alone; read-out: MIC of ceftibuten (CTB)
K. pneumoniae 319478 = test: Broth microdilution MIC (strain enzymes: SHV-12, CTX-M3 and TEM-1); format: cell-based; conditions: Klebsiella pneumoniae, 319478; alone; read-out: MIC of ceftibuten (CTB)
E. coli 3327 = test: Broth microdilution MIC (strain enzymes: TEM-1, SHV-12); format: cell-based; conditions: Escherichia coli, 3327; alone; read-out: MIC of ceftibuten (CTB)
[2] = system: panel of ESBL-producing Enterobacteriaceae (40 strains); test: Broth microdilution MIC50/MIC90 summary over the panel; format: cell-based
K. pneumoniae ESBL 8 #1 = test: Broth microdilution MIC (strain enzymes: TEM-1, SHV-12); format: cell-based; conditions: Klebsiella pneumoniae; alone; read-out: MIC of ceftibuten (CTB)

## Nc1nc(/C(=C/CC(=O)O)C(=O)N[C@@H]2C(=O)N3C(C(=O)O)=CCS[C@H]23)cs1 [Ceftibuten, ceftibuten, reference compound]
[1]
  CFU reductions in the kidneys: minimal CFU reductions
E. coli 2150
  MIC: 0.5 µg/mL
K. pneumoniae 115468
  MIC: 8 µg/mL
E. coli 3174
  MIC: 0.5 µg/mL
K. pneumoniae KP 8
  MIC: 0.25 µg/mL
E. coli SI-LP377
  MIC: 4 µg/mL
E. coli ESBL 5
  MIC: > 32 µg/mL
K. pneumoniae KPN 508
  MIC: 32 µg/mL
K. pneumoniae 304487
  MIC: 8 µg/mL
K. pneumoniae ESBL 10
  MIC: 16 µg/mL
K. pneumoniae BAA 1705
  MIC: 32 µg/mL
E. coli BAS 1
  MIC: > 32 µg/mL
K. pneumoniae ESBL 8 #2
  MIC: 16 µg/mL
K. pneumoniae ESBL 7 #2
  MIC: > 32 µg/mL
E. coli SI-AIRT-4
  MIC: 0.5 µg/mL
K. pneumoniae 319478
  MIC: > 32 µg/mL
E. coli 3327
  MIC: 8 µg/mL
[2]; read-out: Ceftibuten MIC50
  MIC50: 8 µg/mL (≈ 19.5 µM)
[2]; read-out: Ceftibuten MIC90
  MIC90: > 32 µg/mL
K. pneumoniae ESBL 8 #1
  MIC: 16 µg/mL
